Source: patent US10111874B2, “Combination therapies for treatment of cancer” (Araxes Pharma LLC, priority 2014, dated 2018)

Molecular target: T1, KRAS G12C 1-169, his-tagged protein, GDP-loaded (Homo sapiens, UniProt P01116, G12C)
T1 construct: KRAS G12C 1-169, his-tagged protein, GDP-loaded
Experiment: Biochemical assay: covalent binding to KRAS G12C analyzed by mass spectrometry; note: test concentration or dose not given here
Settings: compounds 48-246, measured at 2 h

T1 sequence (P01116 1-169 isoform P01116-2 G12C): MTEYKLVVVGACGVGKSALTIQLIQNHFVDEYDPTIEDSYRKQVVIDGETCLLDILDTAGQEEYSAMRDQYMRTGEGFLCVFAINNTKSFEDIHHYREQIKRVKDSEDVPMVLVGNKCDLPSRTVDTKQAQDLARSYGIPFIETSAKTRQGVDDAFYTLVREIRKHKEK

SMILES | Binding %
C=CC(=O)N1CCN(c2ncnc3cc(-c4ccc(Cl)cc4)c(Cl)cc23)CC1 [Compound I-78, 1-(4-(6-chloro-7-(4-chlorophenyl)quinazolin-4-yl)piperazin-1-yl)prop-2-en-1-one] | + (+indicates binding activity from 5% to 25%)
C=CC(=O)N1CCN(c2ncnc3cc(-c4cccc(CC)c4)c(Cl)cc23)CC1 [Compound I-79, 1-(4-(6-chloro-7-(3-ethylphenyl)quinazolin-4-yl)piperazin-1-yl)prop-2-en-1-one] | + (+indicates binding activity from 5% to 25%)
C=CC(=O)N1CCN(c2ncnc3cc(N4CCNCC4)c(Cl)cc23)CC1 [Compound I-80, 1-(4-(6-chloro-7-(piperazin-1-yl)quinazolin-4-yl)piperazin-1-yl)prop-2-en-1-one] | + (+indicates binding activity from 5% to 25%)
C=CC(=O)N1CCN(c2ncnc3cc(-c4ccccc4F)c(Cl)cc23)CC1 [Compound I-81, 1-(4-(6-chloro-7-(2-fluorophenyl)quinazolin-4-yl)piperazin-1-yl)prop-2-en-1-one] | +++ (+++indicates binding activity greater than 50% and up to 75%)
CN(C)C/C=C/C(=O)N1CCN(c2ncnc3cc(-c4ccccc4)c(Cl)cc23)CC1 [Compound I-82, (E)-1-(4-(6-chloro-7-phenylquinazolin-4-yl)piperazin-1-yl)-4-(dimethylamino)but-2-en-1-one] | + (+indicates binding activity from 5% to 25%)
C=CC(=O)N1CCN(c2ncnc3cc(-c4ccc(F)cc4)c(Cl)cc23)CC1 [Compound I-83, 1-(4-(6-chloro-7-(4-fluorophenyl)quinazolin-4-yl)piperazin-1-yl)prop-2-en-1-one] | ++ (++indicates binding activity greater than 25% and up to 50%)
C=CC(=O)N1CCN(c2ncnc3cc(-c4cccc(F)c4)c(Cl)cc23)CC1 [Compound I-84, 1-(4-(6-chloro-7-(3-fluorophenyl)quinazolin-4-yl)piperazin-1-yl)prop-2-en-1-one] | ++ (++indicates binding activity greater than 25% and up to 50%)
C=CC(=O)N1CCN(c2ncnc3cc(-c4ccccc4)c(Cl)cc23)CC1CC#N (centres unmarked) [Compound I-85, 2-(1-acryloyl-4-(6-chloro-7-phenylquinazolin-4-yl)piperazin-2-yl)acetonitrile] | +++ (+++indicates binding activity greater than 50% and up to 75%)
C=CC(=O)N1CCN(c2ncnc3cc(-c4ccccc4)c(C4CC4)cc23)CC1 [Compound I-86, 1-(4-(6-cyclopropyl-7-phenylquinazolin-4-yl)piperazin-1-yl)prop-2-en-1-one] | + (+indicates binding activity from 5% to 25%)
C=CC(=O)N1CCN(c2ncnc3cc(-c4ccccc4)ccc23)CC1 [Compound I-87] | + (+indicates binding activity from 5% to 25%)
C=CC(=O)N1CCN(c2nccc3cc(-c4ccccc4)c(Cl)cc23)CC1 [Compound I-88, 1-(4-(7-chloro-6-phenylisoquinolin-1-yl)piperazin-1-yl)prop-2-en-1-one] | + (+indicates binding activity from 5% to 25%)
C=CC(=O)NC1CCN(c2ncnc3cc(-c4ccccc4)c(Cl)cc23)CC1 [Compound I-89, N-(1-(6-chloro-7-phenylquinazolin-4-yl)piperidin-4-yl)acrylamide] | + (+indicates binding activity from 5% to 25%)
C=CC(=O)N1CCN(c2ncnc3cc(-c4cccnc4)c(Cl)cc23)CC1 [Compound I-90, 1-(4-(6-chloro-7-(pyridin-3-yl)quinazolin-4-yl)piperazain-1-yl)prop-2-en-1-one] | + (+indicates binding activity from 5% to 25%)
C=CC(=O)N1CCN(c2ccnc3cc(-c4ccccc4)c(Cl)cc23)CC1 [Compound I-91, 1-(4-(6-chloro-7-phenylquinolin-4-yl)piperazin-1-yl)prop-2-en-1-one] | ++ (++indicates binding activity greater than 25% and up to 50%)
C=CC(=O)N1CCN(c2ncnc3cc(-c4ccccn4)c(Cl)cc23)CC1 [Compound I-92, 1-(4-(6-chloro-7-(pyridin-2-yl)quinazolin-4-yl)piperazin-1-yl)prop-2-en-1-one] | + (+indicates binding activity from 5% to 25%)
C=CC(=O)N1CCN(c2ncnc3cc(-c4ccccc4)c(CC)cc23)CC1 [Compound I-93, 1-(4-(6-ethyl-7-phenylquinazolin-4-yl)piperazin-1-yl)prop-2-en-1-one] | + (+indicates binding activity from 5% to 25%)
C=CC(=O)N1CCN(c2nc(OC)nc3cc(-c4ccccc4)c(Cl)cc23)CC1 [Compound I-94, 1-(4-(6-chloro-2-methoxy-7-phenylquinazolin-4-yl)piperazin-1-yl)prop-2-en-1-one] | ++ (++indicates binding activity greater than 25% and up to 50%)
C=CC(=O)N1CCN(c2nc(C)nc3cc(-c4ccccc4)c(Cl)cc23)CC1 [Compound I-95, 1-(4-(6-chloro-2-methyl-7-phenylquinazolin-4-yl)piperazin-1-yl)prop-2-en-1-one] | ++ (++indicates binding activity greater than 25% and up to 50%)

SMILES | Binding %
C=CC(=O)N1CC(Nc2ncnc3cc(-c4ccccc4)c(Cl)cc23)C1 [Compound I-96, 1-(3-(6-chloro-7-phenylquinazolin-4-ylamino)azetidin-1-yl)prop-2-en-1-one] | + (+indicates binding activity from 5% to 25%)
C=CC(=O)N1CCN(c2ncnc3cc(-c4ccccc4OC)c(Cl)cc23)CC1 [Compound I-97, 1-(4-(6-chloro-7-(2-methoxyphenyl)quinazolin-4-yl)piperazin-1-yl)prop-2-en-1-one] | ++ (++indicates binding activity greater than 25% and up to 50%)
C=CC(=O)N1CCN(c2ncnc3cc(-c4ccccc4C(N)=O)c(Cl)cc23)CC1 [Compound I-98, 2-(4-(4-acryloylpiperazin-1-yl)-6-chloroquinazolin-7-yl)benzamide] | + (+indicates binding activity from 5% to 25%)
C=CC(=O)N1CCN(c2ncnc3cc(-c4ccccc4C(C)C)c(Cl)cc23)CC1 [Compound I-99, 1-(4-(6-chloro-7-(2-isopeopylphenyl)quinazolin-4-yl)piperazin-1-yl)prop-2-en-1-one] | +++ (+++indicates binding activity greater than 50% and up to 75%)
C=CC(=O)N1CCN(c2ncnc3cc(-c4ccccc4C(F)(F)F)c(Cl)cc23)CC1 [Compound I-100, 1-(4-(6-chloro-7-(2-(trifluoromethyl)phenyl)quinazolin-4-yl)piperazin-1-yl)prop-2-en-1-one] | +++ (+++indicates binding activity greater than 50% and up to 75%)
C=CC(=O)N1CCN(c2ncnc3cc(-c4cc(Cl)ccc4Cl)c(Cl)cc23)CC1 [Compound I-101, 1-(4-(6-chloro-7-(2,5-dichlorophenyl)quinazolin-4-yl)piperazin-1-yl)prop-2-en-1-one] | +++ (+++indicates binding activity greater than 50% and up to 75%)
C=CC(=O)N1CCN(c2ncnc3cc(-c4ccc(Cl)cc4Cl)c(Cl)cc23)CC1 [Compound I-102, 1-(4-(6-chloro-7-(2,4-dichlorophenyl)quinazolin-4-yl)piperazin-1-yl)prop-2-en-1-one] | +++ (+++indicates binding activity greater than 50% and up to 75%)
C=CC(=O)N1CCN(c2ncnc3cc(-c4ccccc4COC)c(Cl)cc23)CC1 [Compound I-103, 1-(4-(6-chloro-7-(2-(methoxymethyl)phenyl)quinazolin-4-yl)piperazin-1-yl)prop-2-en-1-one] | ++ (++indicates binding activity greater than 25% and up to 50%)
C=CC(=O)N1CCN(c2ncnc3cc(-c4ccccc4)c(Cl)cc23)CC1C(N)=O (centres unmarked) [Compound I-104, 1-acryloyl-4-(6-chloro-7-phenylquinazolin-4-yl)piperazine-2-carboxamide] | +++ (+++indicates binding activity greater than 50% and up to 75%)
C=CC(=O)N1CCN(c2ncnc3cc(-c4ccccc4C#N)c(Cl)cc23)CC1 [Compound I-105, 2-(4-(4-acryloylpiperazin-1-yl)-6-chloroquinazolin-7-yl)benzonitrile] | + (+indicates binding activity from 5% to 25%)
C=CC(=O)N1CCN(c2ncnc3cc(-c4ccccc4F)c(Cl)cc23)CC1CC#N (centres unmarked) [Compound I-106] | ++++ (++++indicates binding activity greater than 75%)
C=CC(=O)N1CCN(c2ncnc3cc(-c4ccccc4CC)c(Cl)cc23)CC1CC#N (centres unmarked) [Compound I-107, 2-(1-acryloyl-4-(6-chloro-7-(2-ethylphenyl)quinazolin-4-yl)piperazin-2-yl)acetonitrile] | ++++ (++++indicates binding activity greater than 75%)
C=CC(=O)N1CCN(c2ncnc3cc(-c4ccccc4CO)c(Cl)cc23)CC1 [Compound I-108, 1-(4-(6-chloro-7-(2-(hydroxymethyl)phenyl)quinazolin-4-yl)piperazin-1-yl)prop-2-en-1-one] | ++ (++indicates binding activity greater than 25% and up to 50%)
C=CC(=O)N1CCN(c2ncnc3cc(-c4ccccc4Cl)c(Cl)cc23)CC1CC#N (centres unmarked) [Compound I-109, 2-(1-acryloyl-4-(6-chloro-7-(2-chlorophenyl)quinazolin-4-yl)piperazin-2-yl)acetonitrile] | ++++ (++++indicates binding activity greater than 75%)
C=CC(=O)N1CCN(c2ncnc3cc(-c4ccc(Cl)cc4)c(Cl)cc23)CC1CC#N (centres unmarked) [Compound I-110, 2-(1-acryloyl-4-(6-chloro-7-(4-chlorophenyl)quinazolin-4-yl)piperazin-2-yl)acetonitrile] | +++ (+++indicates binding activity greater than 50% and up to 75%)
C=CC(=O)N1CCN(c2ncnc3cc(-c4ccc(Cl)cc4)c(Cl)cc23)CC1CC#N (centres unmarked) [Compound I-111, 2-(1-acryloyl-4-(6-chloro-7-(4-chlorophenyl)quinazolin-4-yl)piperazin-2-yl)acetonitrile] | +++ (+++indicates binding activity greater than 50% and up to 75%)
C=CC(=O)N1CCN(c2ncnc3cc(-c4ccc(F)cc4F)c(Cl)cc23)CC1 [Compound I-112, 1-(4-(6-chloro-7-(2,4-difluorophenyl)quinazolin-4-yl)piperazin-1-yl)prop-2-en-1-one] | +++ (+++indicates binding activity greater than 50% and up to 75%)
